This passage reports IC50 results from patent publication US12612379B2, “Inhibitors of APOL1 and methods of using same” (Vertex Pharmaceuticals Incorporated, priority 2021, dated 2026).

Structures are written as SMILES.

This experiment concerns the target T1, APOL1 (tet-inducible transgenic APOL1 T-REx-HEK293 cell lines) (Homo sapiens, UniProt O14791).
T1 sequence (O14791 1-398 S342G/I384M): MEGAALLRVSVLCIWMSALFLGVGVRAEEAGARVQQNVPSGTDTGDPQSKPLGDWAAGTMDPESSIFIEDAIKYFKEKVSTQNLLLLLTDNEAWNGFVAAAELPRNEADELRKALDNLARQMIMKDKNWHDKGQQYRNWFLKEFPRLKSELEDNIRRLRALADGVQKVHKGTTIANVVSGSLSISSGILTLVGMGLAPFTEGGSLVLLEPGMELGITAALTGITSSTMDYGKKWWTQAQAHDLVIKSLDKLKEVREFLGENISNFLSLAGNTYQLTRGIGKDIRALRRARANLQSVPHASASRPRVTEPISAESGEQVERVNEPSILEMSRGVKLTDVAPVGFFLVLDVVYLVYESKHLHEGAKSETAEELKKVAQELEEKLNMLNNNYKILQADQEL
Briefly: MultiTox-Fluor Multiplex Cytotoxicity Assay for APOL1 inhibitor properties. The following applies: APOL1 induced with 50 ng/mL tet, 24 hours with compound, ratio of dead to live cells, top concentration 10 μM; APOL1 variant (G0/G1/G2) not stated; read-out: IP50 (nM) (i.e., IC50 for cell proliferation). The experiment is classed as cell-based. The method, then: The MultiTox-Fluor Multiplex Cytotoxicity Assay is a single-reagent-addition, homogeneous, fluorescence assay that measures the number of live and dead cells simultaneously in culture wells. The assay measures cell viability and cytotoxicity by detecting two distinct protease activities. The live-cell protease activity is restricted to intact viable cells and is measured using a fluorogenic, cell-permeant peptide glycyl-phenylalanylamino fluorocoumarin (GF-AFC) substrate. The substrate enters intact cells, where it is cleaved to generate a fluorescent signal proportional to the number of living cells. […] A second, cell-impermeant, fluorogenic peptide substrate (bis-AAF-R110 Substrate) is used to measure dead-cell protease that has been released from cells that have lost membrane integrity. A ratio of dead to live cells is used to normalize data.
Briefly, the tet-inducible transgenic APOL1 T-REx-HEK293 cell lines were incubated with 50 ng/mL tet to induce APOL1 in the presence of 3-(2-(4-fluorophenyl)-1H-indol-3-yl)-N-((3S,4R)-4-hydroxy-2-oxopyrrolidin-3-yl)propenamide at 10.03, 3.24, 1.13, 0.356, 0.129, 0.042, 0.129, 0.0045, 0.0015, 0.0005 μM in duplicate for 24 hours in a humidified 37° C. incubator. The MultiTox reagent was added to each well and placed back in the incubator for an additional 30 minutes. The plate was read on the EnVision plate reader. A ratio of dead to live cells was used to normalize, and data was imported, analyzed, and fit using Genedata Screener (Basel, Switzerland) software. Data was normalized using percent of control, no tet (100% viability), and 50 ng/mL tet treated (0% viability), and fit using Smart Fit. The reagents, methods, and complete protocol for the MultiTox assay are described below.
Human embryonic kidney (HEK293) cell lines containing a tet-inducible expression system (T-REx™; Invitrogen, Carlsbad, CA) and Adeno-associated virus site 1 pAAVS1-Puro-APOL1 G0 or pAAVS1-Puro-APOL1 G1 or pAAVS1-Puro-APOL1 G2 Clones G0 DC2.13, G1 DC3.25, and G2 DC4.44 were grown in a T-225 flask at ˜90% confluency in cell growth media (DMEM, 10% Tet-free FBS, 2 mM L-glutamine, 100 Units/mL penicillin-streptomycin, 5 μg/mL blasticidin S HCl, 1 μg/mL puromycin dihydrochloride). Cells were washed with DPBS and then trypsinized to dissociate from the flask. Media was used to quench the trypsin, cells were then pelleted at 200 g and resuspended in fresh cell assay media (DMEM, 2% Tet-free FBS, 2 mM L-glutamine, 100 Units/mL penicillin-streptomycin). Cells were counted and diluted to 1.17×10^6 cells/mL. 20 μL of cells (23,400/well) were dispensed in every well of a 384-well Poly-D-Lysine coated plate using the Multidrop dispenser. The plates were then incubated at room temperature for one hour.
Tetracycline is needed to induce APOL1 expression. 1 mg/mL tet stock in water was diluted to 250 ng/mL (5×) in cell assay media. 60 μL of cell assay media (no tet control) was dispensed in columns 1 and 24, and 60 μL of 5×tet in 384-PP-round bottom plate was dispensed in columns 2 to 23 with the Multidrop dispenser.
Assay ready plates from the Global Compound Archive were ordered using template 384_APOL1Cell_DR10n2_50 uM_v3. Compounds were dispensed at 200 nL in DMSO. The final top concentration was 10 μM with a 10 point 3-fold dilution in duplicate in the MultiTox assay.
20 μL was transferred from the 5×tet plate to the ARP and mixed, then 5 μL of 5×tet and the compounds were transferred to the cell plate and mixed using the Bravo. The cell plate was placed in the humidified 37° C. 5% CO2 incubator for 24 hours.
The MultiTox-Fluor Multiplex Cytotoxicity Assay was performed in accordance with the manufacturer's protocol. After cells were incubated with tet and compound for 24 hours, 25 μL of 1×MultiTox reagent was added to each well using the Multidrop dispenser; the plates were placed on a plate shaker (600 rpm) for 2 minutes, then centrifuged briefly and placed back in the 37° C. incubator for 30 minutes. […]
As for `C[C@H]1C[C@@](O)(c2ccc(C(F)(F)F)cc2)C[C@@H](c2cn(C)nn2)N1` [Compound 16], the IC50 was not above 50 nM.

For the compound `C[C@H]1C[C@@](O)(c2ccc(C(F)(F)F)nc2)C[C@@H](c2cn(C)nn2)N1` [Compound 37], the IC50 was in the range of 50 to 500 nM.

Take `C[C@H]1C[C@@](O)(Cc2cccc(C(F)(F)F)c2)C[C@@H](c2cn(C)nn2)N1` [Compound 61, (2S,4S,6S)-2-methyl-6-(1-methyltriazol-4-yl)-4-[[3-(trifluoromethyl)phenyl]methyl]piperidin-4-ol]: the IC50 is not below 500 nM.

`COc1cc([C@@]2(O)C[C@@H](c3cn(C)nn3)N[C@@H](C)C2)ccc1C(F)(F)F` [Compound 28]: the IC50 is not above 50 nM.

Take `COc1cc(Cl)ccc1[C@@]1(O)C[C@@H](c2cn(C)nn2)N[C@@H](C)C1` [Compound 20]: the IC50 is not below 500 nM.

`C[C@H]1C[C@@](O)(c2ccc(C(F)(F)F)cc2O)C[C@@H](c2cn(C)nn2)N1` [Compound 44]: the IC50 fell in the range of 50 to 500 nM.

`C[C@H]1C[C@@](CO)(c2ccc(C(F)(F)F)cc2)C[C@@H](c2cn(C)nn2)N1` [Compound 65, ((2S,4S,6S)-2-methyl-6-(1-methyl-1H-1,2,3-triazol-4-yl)-4-(4-(trifluoromethyl)phenyl)piperidin-4-yl)methanol]: the IC50 is 50 to 500 nM.

As to `C[C@H]1C[C@@](O)(c2ccc(Cl)c(C(F)(F)F)c2)C[C@@H](c2cn(C)nn2)N1` [Compound 33], the IC50 is not above 50 nM.

In the case of `C[C@H]1C[C@@](O)(c2csc(C(F)(F)F)c2)C[C@@H](c2cn(C)nn2)N1` [Compound 14], the IC50 lay within 50 to 500 nM.

As to `C[C@H]1C[C@@](O)(c2ccc3c(c2)OC(F)(F)C3(F)F)C[C@@H](c2cn(C)nn2)N1` [Compound 40], the IC50 is not above 50 nM.

As for `C[C@H]1C[C@@](O)(c2ccc(Cl)c(F)c2)C[C@@H](c2cn(C)nn2)N1` [Compound 13], the IC50 is not above 50 nM.

On to `C[C@H]1C[C@@](O)(c2ccc3cn(C)nc3c2)C[C@@H](c2cn(C)nn2)N1` [Compound 54], for which the IC50 is not below 500 nM.

Turning to `C[C@H]1C[C@@](C#N)(c2ccc(Cl)cn2)C[C@@H](c2cn(C)nn2)N1` [Compound 63, (2S,4S,6S)-4-(5-chloropyridin-2-yl)-2-methyl-6-(1-methyl-1H-1,2,3-triazol-4-yl)piperidine-4-carbonitrile], the IC50 was not below 500 nM.

In the case of `C[C@H]1C[C@@](O)(c2ccc(Cl)cc2)C[C@@H](c2cn(C)nn2)N1` [Compound 4], the IC50 was not above 50 nM.

For `C[C@H]1C[C@@](C#N)(c2ccc(C(F)(F)F)cc2)C[C@@H](c2cn(C)nn2)N1` [Compound 46, (2S,4S,6S)-2-methyl-6-(1-methyltriazol-4-yl)-4-[4-(trifluoromethyl)phenyl]piperidine-4-carbonitrile], the IC50 was in the range of 50 to 500 nM.

Turning to `C[C@@H]1C[C@](O)(c2cccc(Cl)c2)C[C@H](C)N1` [Compound 1], the IC50 is not below 500 nM.

In the case of `C[C@H]1C[C@@](O)(c2ccc(Cl)cn2)C[C@@H](c2cn(C)nn2)N1` [Compound 18], the IC50 was 50 to 500 nM.

On to `C[C@H]1C[C@@](O)(c2ccccc2)C[C@@H](c2cn(C)nn2)N1` [Compound 7], for which the IC50 is not below 500 nM.

Turning to `C[C@H]1C[C@@](O)(c2ccc(F)cc2)C[C@@H](c2cn(C)nn2)N1` [Compound 15], the IC50 is not below 500 nM.

In the case of `CC(C)c1ccc([C@@]2(O)C[C@@H](c3cn(C)nn3)N[C@@H](C)C2)cc1` [Compound 8], the IC50 was not above 50 nM.

For the compound `C[C@H]1C[C@@](O)(C2CCCCC2)C[C@@H](c2cn(C)nn2)N1` [Compound 60, (2S,4S,6S)-4-cyclohexyl-2-methyl-6-(1-methyltriazol-4-yl)piperidin-4-ol], the IC50 was not below 500 nM.

Take `C[C@H]1C[C@@](O)(c2ccnc(C(F)(F)F)c2)C[C@@H](c2cn(C)nn2)N1` [Compound 35]: the IC50 was not below 500 nM.

As for `C[C@H]1C[C@@](O)(CS(=O)(=O)c2ccc(Br)cc2)C[C@@H](c2cn(C)nn2)N1` [Compound 45], the IC50 was not below 500 nM.
